Measured values from patent US7989497B2, “Squaramide derivatives as CXCR2 antagonist” (Novartis AG, priority 2008, dated 2011).

These molecules were tested against T1, human CXCR2 receptor (Homo sapiens, UniProt P25025) (assay: [35S]-GTPγS binding assay for human CXCR2 receptor using SPA technology). Details: CHO-K1 membranes expressing human CXCR2, 100 nM IL-8.
T1 construct: purchased Biosignal Packard Inc; host or cells: CHO-K1 (Chinese hamster ovary) cell membranes
T1 sequence (P25025 1-360): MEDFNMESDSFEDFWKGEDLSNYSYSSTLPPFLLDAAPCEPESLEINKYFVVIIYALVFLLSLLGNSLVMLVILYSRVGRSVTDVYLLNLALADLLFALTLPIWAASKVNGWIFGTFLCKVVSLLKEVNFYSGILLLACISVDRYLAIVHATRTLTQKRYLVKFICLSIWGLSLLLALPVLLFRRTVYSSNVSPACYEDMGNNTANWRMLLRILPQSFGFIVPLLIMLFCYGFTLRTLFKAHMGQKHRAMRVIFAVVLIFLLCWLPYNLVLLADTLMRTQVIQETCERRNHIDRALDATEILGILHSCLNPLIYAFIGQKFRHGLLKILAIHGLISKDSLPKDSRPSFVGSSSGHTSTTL
Format: biochemical
From the text: [^35S]-GTPγS Binding Assay for Human CXCR2 Receptor Using SPA Technology
[^35S]-GTPγS (with specific activity 1082 Ci/mmol) and wheat germ agglutinin poly vinyl toluene scintillation proximity beads are purchased from Amersham Pharmacia Biotech. The Chinese hamster ovary cell (CHO-K1) membranes expressing human CXCR2 receptors are purchased from Biosignal Packard Inc. All other chemicals are of analytical grade. White non-binding surface 96 well Optiplate™ microplates are obtained from Packard. Recombinant human IL-8 is synthesised, cloned and expressed in Escherichia coli as described previously (Lindley I, et al., Proc. Natl. Acad. Sci., 1988, 85(23):9199).
The assay is performed in duplicate in 96 well Optiplate™ microplate in a final volume of 250 μl per well. Compounds are diluted in DMSO (0.5% final concentration) and incubated in 20 mM HEPES buffer pH 7.4 containing 10 mM MgCl2, 100 mM NaCl, 1 mM EDTA plus 100 nM IL-8, 50 μM GDP and 500 pM [^35S]GTPγS per well. SPA beads (1 mg/well final concentration) were pre-mixed with the membranes (10 μg/well final concentration) in assay buffer: 20 mM HEPES buffer pH 7.4 containing 10 mM MgCl2, 100 mM NaCl, 1 mM EDTA. The bead membrane mixture is added to each well, plates are sealed and incubated at room temperature for 60 minutes. The plate is centrifuged and read on Packard TopCount™ scintillation counter, program [^35S dpm] for 1 min/well. Data are expressed as the % response to 100 nM IL-8 minus basal.

IC50 [nM] | SMILES
30 | CON(C)S(=O)(=O)c1c(Cl)ccc(Nc2c(NC3CCCC3)c(=O)c2=O)c1O [Example 2.60, 6-chloro-3-(2-(cyclopentylamino)-3,4-dioxocyclobut-1-enylamino)-2-hydroxy-N-methoxy-N-methylbenzenesulfonamide]
5 | CCC(CC)Nc1c(Nc2ccc(Cl)c(S(=O)(=O)N(C)OC)c2O)c(=O)c1=O [Example 8, 6-Chloro-3-[2-(1-ethyl-propylamino)-3,4-dioxo-cyclobut-1-enylamino]-2-hydroxy-N-methoxy-N-methyl-benzenesulfonamide]
19 | CCOC[C@H](C)Nc1c(Nc2ccc(Cl)c(S(=O)(=O)N(C)OC)c2O)c(=O)c1=O [Example 2.47, (S)-6-chloro-3-(2-(1-ethoxypropan-2-ylamino)-3,4-dioxocyclobut-1-enylamino)-2-hydroxy-N-methoxy-N-methylbenzenesulfonamide]
6 | CC[C@@H](Nc1c(Nc2ccc(Cl)c(S(=O)(=O)N(CC)OC)c2O)c(=O)c1=O)[C@H]1CCCO1 [Example 2.13, 6-Chloro-3-{3,4-dioxo-2-[(R)-(R)-1-(tetrahydro-furan-2-yl)-propylamino]-cyclobut-1-enylamino}-N-ethyl-2-hydroxy-N-methoxy-benzene sulfonamide]
8 | CON(C)S(=O)(=O)c1c(Cl)ccc(Nc2c(NC(C3CC3)C3CC3)c(=O)c2=O)c1O [Example 2.17, 6-chloro-3-(2-(dicyclopropylmethylamino)-3,4-dioxocyclobut-1-enylamino)-2-hydroxy-N-methoxy-N-methylbenzenesulfonamide]
13 | CCC(Nc1c(Nc2ccc(Cl)c(S(=O)(=O)N(C)OC)c2O)c(=O)c1=O)[C@H]1CCCO1 (stereo in doubt) [Example 4, 6-Chloro-3-{3,4-dioxo-2-[(R)-1-(tetrahydro-furan-2-yl)-propylamino]-cyclobut-1-enylamino}-2-hydroxy-N-methoxy-N-methyl-benzenesulfonamide]
56 | CC[C@@H](Nc1c(Nc2cccc(S(=O)(=O)N(CC)OC)c2O)c(=O)c1=O)[C@@H]1CCCO1 [Example 2.71, 3-(3,4-dioxo-2-((R)-1-((S)-tetrahydrofuran-2-yl)propylamino)cyclobut-1-enylamino)-N-ethyl-2-hydroxy-N-methoxybenzenesulfonamide]
4 | CC[C@@H](Nc1c(Nc2ccc(Cl)c(S(=O)(=O)N(C)OC)c2O)c(=O)c1=O)c1ccccn1 [Example 7, 6-Chloro-3-[3,4-dioxo-2-((R)-1-pyridin-2-yl-propylamino)-cyclobut-1-enylamino]-2-hydroxy-N-methoxy-N-methyl-benzenesulfonamide]
93 | CCC(Nc1c(Nc2ccc(Cl)c(S(=O)(=O)N(C)OC)c2O)c(=O)c1=O)c1cccnc1 (stereo not shown) [Example 2.50, 6-chloro-3-(3,4-dioxo-2-(1-(pyridin-3-yl)propylamino)cyclobut-1-enylamino)-2-hydroxy-N-methoxy-N-methylbenzenesulfonamide]
26 | CON(C)S(=O)(=O)c1c(Cl)ccc(Nc2c(N[C@H]3CCSC3)c(=O)c2=O)c1O [Example 3, 6-Chloro-3-{3,4-dioxo-2-[(S)-(tetrahydro-thiophen-3-yl)amino]-cyclobut-1-enylamino}-2-hydroxy-N-methoxy-N-methyl-benzenesulfonamide]
17 | CC[C@@H](Nc1c(Nc2ccc(Cl)c(S(=O)(=O)N(CC)OC)c2O)c(=O)c1=O)c1ccc(C)o1 [Example 2.43, (R)-6-chloro-N-ethyl-2-hydroxy-N-methoxy-3-(2-(1-(5-methylfuran-2-yl)propylamino)-3,4-dioxocyclobut-1-enylamino)benzenesulfonamide]
33 | CON(C)S(=O)(=O)c1c(Cl)ccc(Nc2c(N[C@H](C)c3ccccc3)c(=O)c2=O)c1O [Example 5, 6-Chloro-3-[3,4-dioxo-2-((R)-1-phenyl-ethylamino)-cyclobut-1-enylamino]-2-hydroxy-N-methoxy-N-methyl-benzenesulfonamide]
234 | CCC(Nc1c(Nc2ccc(Cl)c(S(=O)(=O)N(C)OC)c2O)c(=O)c1=O)c1cccc(C)n1 (stereo not shown) [Example 2.27, 6-chloro-2-hydroxy-N-methoxy-N-methyl-3-(2-(1-(6-methylpyridin-2-yl)propylamino)-3,4-dioxocyclobut-1-enylamino)benzenesulfonamide]
21 | COCC(C)Nc1c(Nc2ccc(Cl)c(S(=O)(=O)N(C)OC)c2O)c(=O)c1=O (stereo not shown) [Example 2.23, 6-chloro-2-hydroxy-N-methoxy-3-(2-(1-methoxypropan-2-ylamino)-3,4-dioxocyclobut-1-enylamino)-N-methylbenzenesulfonamide]
14 | CON(C)S(=O)(=O)c1c(Cl)ccc(Nc2c(NC(C)C)c(=O)c2=O)c1O [Example 2.35, 6-chloro-2-hydroxy-3-(2-(isopropylamino)-3,4-dioxocyclobut-1-enylamino)-N-methoxy-N-methylbenzenesulfonamide]
2 | CC[C@@H](Nc1c(Nc2ccc(Cl)c(S(=O)(=O)N(C)OC)c2O)c(=O)c1=O)c1ccc(C)o1 [Example 2, 6-Chloro-2-hydroxy-N-methoxy-N-methyl-3-{2-[(R)-1-(5-methyl-furan-2-yl)-propylamino]-3,4-dioxo-cyclobut-1-enylamino}-benzenesulfonamide]
283 | CON(C)S(=O)(=O)c1c(Cl)ccc(Nc2c(N[C@H](C)c3cnn(C)c3)c(=O)c2=O)c1O [Example 2.95, (R)-6-chloro-2-hydroxy-N-methoxy-N-methyl-3-(2-(1-(1-methyl-1H-pyrazol-4-yl)ethylamino)-3,4-dioxocyclobut-1-enylamino)benzenesulfonamide]
9 | CCN(OC)S(=O)(=O)c1c(Cl)ccc(Nc2c(NC(C)C)c(=O)c2=O)c1O [Example 2.19, 6-chloro-N-ethyl-2-hydroxy-3-(2-(isopropylamino)-3,4-dioxocyclobut-1-enylamino)-N-methoxybenzenesulfonamide]
28 | CC[C@@H](Nc1c(Nc2ccc(Cl)c(S(=O)(=O)N(C)OC)c2O)c(=O)c1=O)[C@H]1CC[C@@H](C)O1 [Example 6, 6-Chloro-2-hydroxy-N-methoxy-N-methyl-3-{2-[(R)-1-((2R,5R)-5-methyl-tetrahydro-furan-2-yl)-propylamino]-3,4-dioxo-cyclobut-1-enylamino}-benzene sulfonamide]
26 | CCCC(CCC)Nc1c(Nc2ccc(Cl)c(S(=O)(=O)N(C)OC)c2O)c(=O)c1=O [Example 2.57, 6-chloro-3-(2-(heptan-4-ylamino)-3,4-dioxocyclobut-1-enylamino)-2-hydroxy-N-methoxy-N-methylbenzenesulfonamide]
11 | CC[C@@H](Nc1c(Nc2ccc(Cl)c(S(=O)(=O)N3C[C@H](O)CO3)c2O)c(=O)c1=O)[C@H]1CC[C@@H](C)O1 [Example 2.32, 3-(4-chloro-2-hydroxy-3-((S)-4-hydroxyisoxazolidin-2-ylsulfonyl)phenylamino)-4-((R)-1-((2R,5R)-5-methyltetrahydrofuran-2-yl)propylamino)cyclobut-3-ene-1,2-dione]
28 | CCN(OC)S(=O)(=O)c1c(Cl)ccc(Nc2c(N[C@H](C)c3ccccc3)c(=O)c2=O)c1O [Example 2.58, (R)-6-chloro-3-(3,4-dioxo-2-(1-phenylethylamino)cyclobut-1-enylamino)-N-ethyl-2-hydroxy-N-methoxybenzenesulfonamide]
